Experimental data: patent US20110196000A1, “Use of succinate dehydrogenase (SDH) inhibitors in the treatment of plant species from the family of the true grasses” (Bayer CropScience AG, priority 2010, published 2011)

Assays:
Format in all cases: in vivo
wheat variety Ritmo [1] = assay: Plot trial in Germany: green leaf area by visual scoring; details: for green leaf area of the flag leaf / green leaf area of the second-from-top leaf (F-1) / green leaf area of the third-from-top leaf (F-2): sprays at BBCH 39 and 59
Experimental: In Germany a plot trial was set up with the wheat variety Ritmo in order to investigate the effect of bixafen on the physiology, morphology and abiotic stress tolerance of wheat plants under realistic agricultural conditions. The products under test were applied to the plants, in the form of sequential spray sequences (BBCH 39 and 59). The spray volume was 400 l of water per hectare. In each trial component, 5 repetitions were carried out. [table] The duration of green coloration of the leaf area was captured by regular visual scoring of the fraction of green leaf area.

[2] = tested on: infection-free wheat plants of the cultivar Passat; assay: Glasshouse trial: green leaf area by visual scoring; details: for green leaf area of the flag leaf (F) / green leaf area of the second-from-top leaf (F-1) / green leaf area of the third-from-top leaf (F-2): glasshouse
Experimental: In a glasshouse trial under controlled conditions, the effect of bixafen was investigated on the physiology, morphology and abiotic stress tolerance of infection-free wheat plants of the cultivar […] plants were grown in 10-litre containers over a period of 4 months. The substrate used was standard earth type ED 73 (Fröndenberg, Germany)+C-Horizont+Sand (4:2:1). The supply of nutrient to the plants took place by feeding with a 0.2% strength Flory 2 liquid fertilizer solution (from Euflor, Munich) once every two weeks. The plants were supplied with water as required. In each component of the trial, 10 repetitions were carried out. To prevent infestation with powdery mildew, Proquinazid (Talius® was applied once. The incidence of aphids and spider mites was avoided by treatments with Karate®, Bulldock® and Sumicidin®. The products under test were applied to the plants, in the form of sequential spray sequences (BBCH 39 and 59). The spray volume was 300 l of water per hectare. [table] The duration of the green coloration of the leaf area was captured on the basis of regular visual scoring of the fraction of the green leaf area.

[3] = tested on: infection-free wheat plants of the cultivar Passat; assay: Glasshouse trial: time of heading (ear emergence); set-up: time of heading of wheat (ears emerged): unit not given here
Experimental: (§1) In a glasshouse trial under controlled conditions, the effect of bixafen was investigated on the physiology, morphology and abiotic stress tolerance of infection-free wheat plants of the cultivar […] plants were grown in 10-litre containers over a period of 4 months. The substrate used was standard earth type ED 73 (Fröndenberg, Germany)+C-Horizont+Sand (4:2:1). The supply of nutrient to the plants took place by feeding with a 0.2% strength Flory 2 liquid fertilizer solution (from Euflor, Munich) once every two weeks. The plants were supplied with water as required. In each component of the trial, 10 repetitions were carried out.

[4] = tested on: infection-free wheat plants of the cultivar Passat; assay: Glasshouse trial: gas exchange activity of wheat ears; details: development stage BBCH 75
Experimental: as §1

[5] = tested on: infection-free wheat plants of the cultivar Passat; assay: Glasshouse trial: temperature of ears and leaves as measure of transpiration activity
Experimental: as §1

wheat = assay: Effect on the number of kernels/ear; details: 1st. trial
wheat variety Ritmo [6] = assay: Plot trial: chlorophyll content of leaves (pigment extraction method of Ziegler and Ehle)
[7] = tested on: infection-free wheat plants of the cultivar Passat; assay: Glasshouse trial: yield components
[8] = 7 days after second fungicide application
[9] = 14 days after second fungicide application
[10] = 21 days after second fungicide application
[11] = 28 days after second fungicide application
[12] = 35 days after second fungicide application
[13] = 42 days after second fungicide application
[14] = 68 days after second fungicide application (so in the source)
[15] = 75 days after second fungicide application (so in the source)
[16] = 82 days after second fungicide application (so in the source)
[17] = 89 days after second fungicide application (so in the source)
[18] = 96 days after second fungicide application (so in the source)
[19] = 103 days after second fungicide application (so in the source)
[20] = 110 days after second fungicide application (so in the source)
[21] = 117 days after second fungicide application (so in the source)
[22] = glasshouse trial, statement in words
[23] = glasshouse, sprays at BBCH 39 and 59

Q: Which “green leaf area of the flag leaf” value (wheat variety Ritmo [1]; [8]) does the source give for Cn1cc(C(=O)Nc2ccc(F)cc2-c2ccc(Cl)c(Cl)c2)c(C(F)F)n1 [Bixafen, N-(3′,4′-dichloro-5-fluoro-1,1′-biphenyl-2-yl)-3-(difluoromethyl)-1-methyl-1H-pyrazole-4-carboxamide] here?
A: Its value is 98.9 % leaf area.

Q: And the “green leaf area of the second-from-top leaf (F-1)” value (“green leaf area … (F-1)” below) (wheat variety Ritmo [1]; [8])?
A: The value was 98.4 % leaf area.

Q: And the “green leaf area of the third-from-top leaf (F-2)” value (shortened to “green leaf area … (F-2)”) (wheat variety Ritmo [1]; [8])?
A: Its value is 96.4 % leaf area.

Q: And the “green leaf area of the flag leaf” value (wheat variety Ritmo [1]; [9])?
A: Its value is 98.7 % leaf area.

Q: What about the “green leaf area … (F-1)” value (wheat variety Ritmo [1]; [9]) of the same compound?
A: The value was 98.3 % leaf area.

Q: And the “green leaf area … (F-2)” value (wheat variety Ritmo [1]; [9])?
A: The value was 96.3 % leaf area.

Q: And the “green leaf area of the flag leaf” value (wheat variety Ritmo [1]; [10])?
A: Its value is 98.8 % leaf area.

Q: What about the “green leaf area … (F-1)” value (wheat variety Ritmo [1]; [10]) of the same compound?
A: Its value is 98.5 % leaf area.

Q: And the “green leaf area … (F-2)” value (wheat variety Ritmo [1]; [10])?
A: Its value is 94.5 % leaf area.

Q: And the “green leaf area of the flag leaf” value (wheat variety Ritmo [1]; [11])?
A: Its value is 96.7 % leaf area.

Q: And the “green leaf area … (F-1)” value (wheat variety Ritmo [1]; [11])?
A: Its value is 94.8 % leaf area.

Q: And the “green leaf area … (F-2)” value (wheat variety Ritmo [1]; [11])?
A: Its value is 91.8 % leaf area.

Q: What about the “green leaf area of the flag leaf” value (wheat variety Ritmo [1]; [12]) of the same compound?
A: The value was 73.0 % leaf area.

Q: And the “green leaf area … (F-1)” value (wheat variety Ritmo [1]; [12])?
A: The value was 60.0 % leaf area.

Q: What about the “green leaf area … (F-2)” value (wheat variety Ritmo [1]; [12]) of the same compound?
A: Its value is 37.5 % leaf area.

Q: And the “green leaf area of the flag leaf” value (wheat variety Ritmo [1]; [13])?
A: The value was 26.7 % leaf area.

Q: What about the “green leaf area … (F-1)” value (wheat variety Ritmo [1]; [13]) of the same compound?
A: The value was 9.2 % leaf area.

Q: And the “green leaf area … (F-2)” value (wheat variety Ritmo [1]; [13])?
A: The value was 3.4 % leaf area.

Q: What about the “green leaf area … (F-1)” value (wheat variety Ritmo [1]; 49 days after second fungicide application) of the same compound?
A: Its value is 0 % leaf area.

Q: What about the “effect on the duration of the green leaf area of the wheat plant” value (wheat variety Ritmo [1]; plot trial, statement in words) of the same compound?
A: The value was “pronounced effect”.

Q: What about the “green leaf area of the flag leaf (F)” value [2, 14] of the same compound?
A: The value was 100 % leaf area.

Q: What about the “green leaf area … (F-1)” value [2, 14] of the same compound?
A: The value was 100 % leaf area.

Q: What about the “green leaf area … (F-2)” value [2, 14] of the same compound?
A: Its value is 100 % leaf area.

Q: What about the “green leaf area of the flag leaf (F)” value [2, 15] of the same compound?
A: The value was 100 % leaf area.

Q: What about the “green leaf area … (F-1)” value [2, 15] of the same compound?
A: Its value is 100 % leaf area.

Q: And the “green leaf area … (F-2)” value [2, 15]?
A: The value was 95 % leaf area.

Q: And the “green leaf area of the flag leaf (F)” value [2, 16]?
A: Its value is 100 % leaf area.

Q: What about the “green leaf area … (F-1)” value [2, 16] of the same compound?
A: The value was 95 % leaf area.

Q: And the “green leaf area … (F-2)” value [2, 16]?
A: The value was 80 % leaf area.

Q: What about the “green leaf area of the flag leaf (F)” value [2, 17] of the same compound?
A: Its value is 95 % leaf area.

Q: And the “green leaf area … (F-1)” value [2, 17]?
A: Its value is 85 % leaf area.

Q: And the “green leaf area … (F-2)” value [2, 17]?
A: Its value is 52 % leaf area.

Q: And the “green leaf area of the flag leaf (F)” value [2, 18]?
A: Its value is 88 % leaf area.

Q: And the “green leaf area … (F-1)” value [2, 18]?
A: The value was 57 % leaf area.

Q: And the “green leaf area … (F-2)” value [2, 18]?
A: Its value is 29 % leaf area.

Q: And the “green leaf area of the flag leaf (F)” value [2, 19]?
A: The value was 65 % leaf area.

Q: What about the “green leaf area … (F-1)” value [2, 19] of the same compound?
A: Its value is 33 % leaf area.

Q: What about the “green leaf area … (F-2)” value [2, 19] of the same compound?
A: Its value is 15 % leaf area.

Q: What about the “green leaf area of the flag leaf (F)” value [2, 20] of the same compound?
A: Its value is 38 % leaf area.

Q: What about the “green leaf area … (F-1)” value [2, 20] of the same compound?
A: Its value is 20 % leaf area.

Q: What about the “green leaf area … (F-2)” value [2, 20] of the same compound?
A: The value was 6 % leaf area.

Q: What about the “green leaf area of the flag leaf (F)” value [2, 21] of the same compound?
A: The value was 15 % leaf area.

Q: What about the “green leaf area … (F-1)” value [2, 21] of the same compound?
A: The value was 5 % leaf area.

Q: And the “green leaf area … (F-2)” value [2, 21]?
A: The value was 0 % leaf area.

Q: And the “effect on the duration of the green leaf area of the wheat plant” value [2, 22]?
A: The value was “pronounced effect”.

Q: And the “time of heading of wheat (ears emerged)” value ([3]; 45 days after sowing)?
A: Its value is 1.8.

Q: What about the “time of heading of wheat (ears emerged)” value ([3]; 50 days after sowing) of the same compound?
A: The value was 15.5.

Q: And the “time of heading of wheat (ears emerged)” value ([3]; 55 days after sowing)?
A: Its value is 42.2.

Q: And the “time of heading of wheat (ears emerged)” value ([3]; 60 days after sowing)?
A: Its value is 57.0.

Q: What about the “time of heading of wheat (ears emerged)” value ([3]; 65 days after sowing) of the same compound?
A: The value was 78.0.

Q: And the “time of heading of wheat (ears emerged)” value ([3]; 70 days after sowing)?
A: Its value is 88.7.

Q: And the “time of heading of wheat (ears emerged)” value ([3]; 75 days after sowing)?
A: The value was 93.5.

Q: What about the “time of heading of wheat (ears emerged)” value ([3]; 80 days after sowing) of the same compound?
A: The value was 96.7.

Q: And the “time of heading of wheat (ears emerged)” value ([3]; 85 days after sowing)?
A: The value was 98.5.

Q: And the “uniformity of heading (ear emergence)” value [3, 22]?
A: The value was “the heading is more uniform”.

Q: What about the Photosynthesis (gas exchange activity of wheat ears) [4] of the same compound?
A: Its Photosynthesis (gas exchange activity of wheat ears) is -5.94 CO2 per ear.

Q: And the Respiration (gas exchange activity of wheat ears) [4]?
A: The Respiration (gas exchange activity of wheat ears) was 6.12 CO2 per ear.

Q: What about the “Temperature (as a measure of the transpiration activity)” value (“Temperature” for short) ([5]; BBCH 75, ear) of the same compound?
A: Its value is 22.3 °C.

Q: And the “Temperature” value ([5]; BBCH 75, leaf)?
A: Its value is 22.1 °C.

Q: What about the “Temperature” value ([5]; BBCH 80, ear) of the same compound?
A: The value was 18.2 °C.

Q: And the “Temperature” value ([5]; BBCH 80, leaf)?
A: Its value is 16.4 °C.

Q: And the “Temperature” value ([5]; BBCH 85, ear)?
A: Its value is 24.5 °C.

Q: What about the “Temperature” value ([5]; BBCH 85, leaf) of the same compound?
A: The value was 23.3 °C.

Q: And the “Temperature” value ([5]; BBCH 90, ear)?
A: The value was 24.1 °C.

Q: What about the “Temperature” value ([5]; BBCH 90, lear (so in the source)) of the same compound?
A: Its value is 22.3 °C.

Q: And the Kernels/ear (wheat; applied at BBCH 33 + 59, twice 125 g a.i.)?
A: Its Kernels/ear is 41.7.

Q: What about the Kernels/ear (wheat; applied at BBCH 39 (bixafen 125 g a.i.; bixafen + prothioconazole 75 + 150 g a.i.)) of the same compound?
A: The Kernels/ear was 42.6.

Q: What about the Chlorophyll content (wheat variety Ritmo [6]; BBCH 75 (mature milk), leaf F) of the same compound?
A: The Chlorophyll content was 1763 µg/g.

Q: What about the Chlorophyll content (wheat variety Ritmo [6]; BBCH 75 (mature milk), leaf F-1) of the same compound?
A: The Chlorophyll content was 1693 µg/g.

Q: What about the Chlorophyll content (wheat variety Ritmo [6]; BBCH 75 (mature milk), leaf F-2) of the same compound?
A: The Chlorophyll content was 1243 µg/g.

Q: And the Chlorophyll content (wheat variety Ritmo [6]; BBCH 85 (mature dough), leaf F)?
A: Its Chlorophyll content is 738 µg/g.

Q: What about the Chlorophyll content (wheat variety Ritmo [6]; BBCH 85 (mature dough), leaf F-1) of the same compound?
A: Its Chlorophyll content is 631 µg/g.

Q: What about the Chlorophyll content (wheat variety Ritmo [6]; BBCH 85 (mature dough), leaf F-2) of the same compound?
A: Its Chlorophyll content is 404 µg/g.

Q: What about the “chlorophyll content and breakdown of chlorophyll” value (wheat variety Ritmo [6]; alone or in combination with other active fungicidal ingredients, statement in words) of the same compound?
A: The value was “the chlorophyll content overall is higher and the breakdown of chlorophyll is slower”.

Q: What about the “yield components compared with the other comparison fungicides” value [7, 22] of the same compound?
A: Its value is “a higher yield, a higher number of kernel/ear, a higher thousand-kernel mass and a lower straw fraction than the other comparison fungicides”.

Q: And the Ears/pot [7, 23]?
A: The Ears/pot was 40.0.

Q: What about the “Harvest Index” value [7, 23] of the same compound?
A: Its value is 29.8%.

Q: And the Kernels/ear [7, 23]?
A: Its Kernels/ear is 25.1.

Q: And the Straw [7, 23]?
A: The Straw was 88.5 g/pot.

Q: What about the “TKM (thousand-kernel mass)” value [7, 23] of the same compound?
A: Its value is 37.5 g.

Q: What about the Yield [7, 23] of the same compound?
A: The Yield was 37.5 g/pot.
